Assay results taken from ChEMBL document CHEMBL1201862, “PubChem BioAssay data set” (2004).
“And” between values parts separate entries of the source, which are not always exact repeats. Equal values may be shown once. One block for each compound: values may come before it. The source made the active and inactive calls.

Tests used:
[1] = cytotoxicity toward NIH3T3 fibroblasts, dose response, counter-screen, cell-based, ATP luminescence, mouse fibroblasts (AID 2010); format: functional;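 note: cells exposed to compound for about 90 hours before reading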
[2] = HeLa cell cytotoxicity, dose response, cytotoxicity control for MgcRacGAP inhibitor project (AID 624300); format: functional
[3] = inhibitors of intracellular T. cruzi replication, confirmation, NIH3T3 host cells, beta-gal luminescence (AID 2044); format: functional, cell-based;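 note: intracellular parasites grown in NIH/3T3 mouse fibroblasts as host cells; luminescent beta-galactosidase reporter signal from transgenic T. cruzi replicating inside host cells; inhibitors lower the luminescence signal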
[4] = biological target: T1, Mannose-6-phosphate isomerase (Homo sapiens, UniProt P34949); assay: human PMI inhibitors, high substrate, primary screen, biochemical, fluorescence intensity, high mannose 6-phosphate (AID 1220)
T1 sequence (P34949 whole entry): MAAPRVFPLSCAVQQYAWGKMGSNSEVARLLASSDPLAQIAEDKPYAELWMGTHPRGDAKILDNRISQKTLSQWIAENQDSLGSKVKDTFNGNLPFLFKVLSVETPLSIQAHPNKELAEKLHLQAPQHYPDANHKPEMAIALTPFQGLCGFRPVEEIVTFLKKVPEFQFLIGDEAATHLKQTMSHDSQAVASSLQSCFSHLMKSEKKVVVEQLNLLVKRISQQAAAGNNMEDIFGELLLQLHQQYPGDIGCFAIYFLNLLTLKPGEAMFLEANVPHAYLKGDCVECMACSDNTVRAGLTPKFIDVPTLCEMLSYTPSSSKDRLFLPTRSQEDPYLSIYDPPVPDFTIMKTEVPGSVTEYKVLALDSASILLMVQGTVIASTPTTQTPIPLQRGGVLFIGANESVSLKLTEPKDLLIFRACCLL

Genome polyprotein = Genome polyprotein (dengue virus type 2, UniProt P29990); assay: Dengue-2 NS5 methyltransferase inhibitors, primary screen, biochemical, confirmation dose response (AID 588689); format: functional
Genome polyprotein, sequence (P29990 2492-3391 limits assumed): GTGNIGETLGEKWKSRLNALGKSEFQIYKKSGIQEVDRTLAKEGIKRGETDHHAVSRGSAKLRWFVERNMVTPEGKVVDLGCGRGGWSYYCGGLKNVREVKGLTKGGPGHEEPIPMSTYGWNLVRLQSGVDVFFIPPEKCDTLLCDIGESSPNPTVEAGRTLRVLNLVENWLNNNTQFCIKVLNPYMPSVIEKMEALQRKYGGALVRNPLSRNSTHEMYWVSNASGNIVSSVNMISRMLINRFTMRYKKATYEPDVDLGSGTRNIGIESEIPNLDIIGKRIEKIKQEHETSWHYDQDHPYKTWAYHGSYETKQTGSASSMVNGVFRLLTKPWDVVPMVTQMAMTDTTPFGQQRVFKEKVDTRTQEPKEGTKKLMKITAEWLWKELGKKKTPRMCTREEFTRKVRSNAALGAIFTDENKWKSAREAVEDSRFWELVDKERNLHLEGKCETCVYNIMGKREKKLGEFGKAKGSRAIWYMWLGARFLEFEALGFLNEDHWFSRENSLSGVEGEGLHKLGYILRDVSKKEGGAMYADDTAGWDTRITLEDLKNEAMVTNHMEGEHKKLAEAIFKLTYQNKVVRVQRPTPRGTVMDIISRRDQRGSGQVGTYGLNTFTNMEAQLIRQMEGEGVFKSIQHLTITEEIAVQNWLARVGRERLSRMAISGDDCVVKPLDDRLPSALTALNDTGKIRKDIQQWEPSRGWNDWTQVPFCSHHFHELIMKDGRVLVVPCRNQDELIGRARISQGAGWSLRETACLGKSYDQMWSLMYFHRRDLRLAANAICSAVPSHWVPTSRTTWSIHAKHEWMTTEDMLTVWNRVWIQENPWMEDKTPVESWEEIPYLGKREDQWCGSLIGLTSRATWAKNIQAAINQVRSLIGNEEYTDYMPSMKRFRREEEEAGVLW

Vero = Vero cell cytotoxicity, cytotoxicity control for flavivirus capping enzyme inhibitors (AID 588742); format: functional; details: Chlorocebus sabaeus
[5] = biological target: Induced myeloid leukemia cell differentiation protein Mcl-1 (Homo sapiens, UniProt Q07820); assay: Mcl-1/Noxa binding inhibitor potency, dose response, biochemical, TR-FRET (AID 1417); format: functional
Induced myeloid leukemia cell differentiation protein Mcl-1, sequence (Q07820 whole entry): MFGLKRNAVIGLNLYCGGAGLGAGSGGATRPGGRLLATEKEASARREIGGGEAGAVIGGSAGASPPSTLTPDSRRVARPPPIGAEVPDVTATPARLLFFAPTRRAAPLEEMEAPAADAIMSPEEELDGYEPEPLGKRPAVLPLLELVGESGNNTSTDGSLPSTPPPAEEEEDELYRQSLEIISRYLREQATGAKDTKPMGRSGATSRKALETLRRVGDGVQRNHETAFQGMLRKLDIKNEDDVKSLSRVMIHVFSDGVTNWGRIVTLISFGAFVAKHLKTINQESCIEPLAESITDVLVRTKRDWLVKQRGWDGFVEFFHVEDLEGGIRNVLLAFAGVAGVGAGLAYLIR

[6] = biological target: T1, Mannose-6-phosphate isomerase; assay: inhibitors of human PMI, primary screen, biochemical, fluorescence intensity, coupled assay (AID 1209)
[7] = HeLa 4N DNA content increase, dose response, cell-based, IC50 (AID 1117351); format: functional
[8] = half-maximal inhibitory concentration for glucagon-like peptide-1 release, STC-1 cell line, dose-response (AID 1117345); format: functional, cell-based
[9] = HeLa 2N DNA content increase, dose response, cell-based, IC50 (AID 1117349); format: functional
[10] = CellTiter-Glo luminescent dose response of DLD-1 viability loss (AID 1117352); format: functional
[11] = SNU-C1 cell viability reduction, dose response, CellTiter-Glo luminescence (AID 1117323); format: functional, cell-based
Cytochrome P450 1A2 = biological target: T2, Cytochrome P450 1A2 (Homo sapiens, UniProt P05177);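 note: PubChem cytochrome P450 panel assay, CYP1A2 panel member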
T2 sequence (P05177 whole entry): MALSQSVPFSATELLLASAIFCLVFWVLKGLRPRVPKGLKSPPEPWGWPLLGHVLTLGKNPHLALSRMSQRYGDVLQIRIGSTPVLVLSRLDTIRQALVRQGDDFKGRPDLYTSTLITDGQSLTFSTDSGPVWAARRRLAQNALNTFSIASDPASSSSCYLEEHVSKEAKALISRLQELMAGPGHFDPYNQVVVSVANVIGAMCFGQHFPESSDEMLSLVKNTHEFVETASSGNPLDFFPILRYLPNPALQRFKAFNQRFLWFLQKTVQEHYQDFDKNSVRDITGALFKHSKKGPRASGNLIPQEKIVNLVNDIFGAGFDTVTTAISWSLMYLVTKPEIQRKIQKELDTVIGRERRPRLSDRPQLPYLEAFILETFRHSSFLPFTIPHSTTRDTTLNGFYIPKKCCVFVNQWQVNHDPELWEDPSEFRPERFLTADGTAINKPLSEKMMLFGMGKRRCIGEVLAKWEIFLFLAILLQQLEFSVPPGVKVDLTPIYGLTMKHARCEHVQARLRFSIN

[12] = Concentration-dependent survival of SW480 colon cancer line, luminescence detection with CellTiter-Glo, half-maximal inhibitory concentration (AID 1117338); format: functional
[13] = Glucagon-like peptide 1 release potency, NCI-H716 cell line, dose-response, half-maximal inhibitory concentration (AID 1117344); format: functional, cell-based
[14] = cytotoxicity toward Colo320 cells – cell-based, CellTiter-Glo luminescence, IC50, dose response (AID 1117334); format: functional; details: COLO 320
[15] = RKO cell viability reduction, dose response, CellTiter-Glo luminescence (AID 1117322); format: functional
[16] = cytotoxicity toward HT-29 cells – cell-based, CellTiter-Glo luminescence, IC50, dose response (AID 1117330); format: functional
[17] = cytotoxicity toward HCT116 cells – cell-based, CellTiter-Glo luminescence, IC50, dose response (AID 1117332); format: functional; details: HCT-116
Cytochrome P450 2C9 = Cytochrome P450 2C9 (Homo sapiens, UniProt P11712)
Cytochrome P450 2C9, sequence (P11712 whole entry): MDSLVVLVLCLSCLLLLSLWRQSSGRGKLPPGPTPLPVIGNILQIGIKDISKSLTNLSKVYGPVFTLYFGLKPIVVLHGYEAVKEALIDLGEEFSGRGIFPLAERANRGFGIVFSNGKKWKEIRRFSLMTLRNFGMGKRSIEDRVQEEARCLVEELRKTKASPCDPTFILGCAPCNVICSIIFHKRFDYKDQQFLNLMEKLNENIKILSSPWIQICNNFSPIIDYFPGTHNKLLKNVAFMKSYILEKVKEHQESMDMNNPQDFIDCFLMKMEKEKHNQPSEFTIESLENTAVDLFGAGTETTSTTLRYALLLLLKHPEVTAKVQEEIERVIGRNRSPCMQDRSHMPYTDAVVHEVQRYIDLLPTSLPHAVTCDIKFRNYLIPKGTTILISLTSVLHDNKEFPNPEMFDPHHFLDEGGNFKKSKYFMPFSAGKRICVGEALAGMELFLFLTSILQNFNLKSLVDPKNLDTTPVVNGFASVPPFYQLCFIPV

[18] = biological target: Eukaryotic translation initiation factor 4E (Mus musculus, UniProt P63073); assay: eIF4E–eIF4G protein interaction inhibitors, dose response, biochemical, TR-FRET (AID 855); format: functional;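 note: potency for disrupting eIF4E binding to eIF4GI seen as loss of FRET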
Eukaryotic translation initiation factor 4E, sequence (P63073 whole entry): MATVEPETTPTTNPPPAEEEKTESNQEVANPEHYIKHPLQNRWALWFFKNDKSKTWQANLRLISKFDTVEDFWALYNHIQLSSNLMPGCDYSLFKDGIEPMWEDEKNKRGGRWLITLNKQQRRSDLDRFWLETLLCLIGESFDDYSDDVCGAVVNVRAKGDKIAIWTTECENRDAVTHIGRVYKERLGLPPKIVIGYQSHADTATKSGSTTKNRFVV

[19] = Jurkat T cell cytotoxicity, dose response, cytotoxicity control for P. falciparum gametocyte viability project, luminescence (AID 1117277); format: functional, cell-based;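 note: potency reflects loss of cellular ATP meaning fewer viable cells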
[20] = P. falciparum late gametocyte killing, dose response, luminescence (AID 1117278); format: functional, cell-based;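 note: gametocytes exposed to compound for 24 hours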
Protein Tat = Protein Tat (Human immunodeficiency virus type 1 group M subtype B (isolate HXB2)(HIV-1), UniProt P04608); format: functional;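 note: tat binding to TAR RNA read out by fluorescence polarization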
Protein Tat, sequence (P04608 whole entry): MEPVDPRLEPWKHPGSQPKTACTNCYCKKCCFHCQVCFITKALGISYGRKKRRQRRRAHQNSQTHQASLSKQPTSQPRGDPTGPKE

14-3-3 protein gamma = 14-3-3 protein gamma (Homo sapiens, UniProt P61981); assay: modulators of 14-3-3 gamma client binding – dose response (AID 711); format: functional
14-3-3 protein gamma, sequence (P61981 whole entry): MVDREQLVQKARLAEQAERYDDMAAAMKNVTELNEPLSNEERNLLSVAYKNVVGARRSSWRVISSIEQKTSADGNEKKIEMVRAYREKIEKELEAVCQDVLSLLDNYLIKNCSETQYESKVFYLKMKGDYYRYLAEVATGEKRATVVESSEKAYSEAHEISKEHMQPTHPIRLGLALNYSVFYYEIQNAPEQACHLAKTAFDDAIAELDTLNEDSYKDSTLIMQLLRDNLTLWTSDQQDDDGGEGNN

[21] = HCT116 cell viability decrease, GSK3B pretreatment – CellTiter-Glo, IC50, dose response (AID 1117339); format: functional; details: HCT-116
[22] = P. falciparum ATP4 D1247Y mutant growth inhibitors, dose response, NITD609-resistant line, SYBR Green, dry powder (AID 1159571); format: functional, cell-based;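 note: parasites synchronized at ring stage by sorbitol before testing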
[23] = P. falciparum Dd2 growth inhibitors, dose response, SYBR Green, dry powder samples (AID 1159566); format: functional, cell-based;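 note: potency for growth inhibition with lower SYBR green DNA signal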
[24] = P. falciparum 3D7-ScDHODH growth inhibitors, dose response, SYBR Green, dry powder samples (AID 1159570); format: functional, cell-based;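 note: parasite growth measured after 72 hours of compound exposure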
[25] = P. falciparum Dd2 growth inhibitors, dose response, SYBR Green, cherry-picked samples (AID 1159567); format: functional, cell-based
[26] = Plasmodium falciparum Dd2 Sybr green parasite growth Measured in Cell-Based and Microorganism Combination System Using Plate Reader - 2153-01_Inhibitor_Dose_DryPowder_Activity_Set3.; format: functional
[27] = HepG2 cell cytotoxicity, dose response, cytotoxicity control, plate reader, dry powder samples (AID 1159569); format: functional, cell-based;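 note: inhibitor potency with signal falling toward the positive control level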
[28] = P. falciparum Dd2 growth inhibitors, dose response, SYBR Green, dry powder samples, set 9 (AID 1159568); format: functional, cell-based
[29] = biological target: RNA-editing ligase 1, mitochondrial (Trypanosoma brucei brucei, UniProt P86926); assay: TbREL1 ligase inhibitors, dose response, biochemical, fluorescence, Trypanosoma brucei (AID 1117295); format: functional
RNA-editing ligase 1, mitochondrial, sequence (P86926 whole entry): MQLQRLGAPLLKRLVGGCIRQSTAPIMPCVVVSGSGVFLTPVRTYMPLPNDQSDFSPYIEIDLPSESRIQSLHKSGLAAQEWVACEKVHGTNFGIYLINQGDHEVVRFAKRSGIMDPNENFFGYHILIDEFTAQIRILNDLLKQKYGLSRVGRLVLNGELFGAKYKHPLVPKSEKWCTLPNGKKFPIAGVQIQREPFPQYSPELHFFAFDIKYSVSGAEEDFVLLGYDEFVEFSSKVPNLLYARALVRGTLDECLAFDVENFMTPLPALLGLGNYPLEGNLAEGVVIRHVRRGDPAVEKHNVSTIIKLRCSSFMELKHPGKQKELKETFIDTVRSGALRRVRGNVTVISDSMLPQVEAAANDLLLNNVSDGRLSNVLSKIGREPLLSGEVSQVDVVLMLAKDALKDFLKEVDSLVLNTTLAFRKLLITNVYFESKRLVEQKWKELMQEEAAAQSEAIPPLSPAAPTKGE

SMILES: CCOc1c(Cl)cc(CNc2ccc(N3CCCC3)cc2)cc1OC
EC50 [1]: > 60 µM (not active)
CC50 [2]: 100 µM (active)
EC50 [3]: 4.98 µM (active)
IC50 [4]: 37.7 µM (active)
IC50 (Genome polyprotein): 93.2 µM (active)
CC50 (Vero): 27.8 µM (active)
IC50 [5]: 2.69 µM (active)
IC50 [6]: 3.93 µM (active)

SMILES: Cc1cc2c(C(C)C)c(O)c(O)c(C=O)c2c(O)c1-c1c(C)cc2c(C(C)C)c(O)c(O)c(C=O)c2c1O [GOSSYPOL]
IC50 [7]: > 10 µM (inactive)
IC50 [8]: > 40 µM (inactive)
IC50 [9]: > 10 µM (inactive)
IC50 [10]: 0.834 µM (active)
IC50 [11]: 0.354 µM (active)
AC50 (Cytochrome P450 1A2): 15.8 µM (inconclusive) and 39.8 µM (inconclusive)
IC50 [12]: 0.956 µM (active)
IC50 [13]: 23.4 µM (inactive)
IC50 [14]: 1.38 µM (active)
IC50 [15]: 0.916 µM (active)
IC50 [16]: 1.42 µM (active)
IC50 [17]: 0.784 µM (active)
IC50 [5]: 1.52 µM (active)
AC50 (Cytochrome P450 2C9): 31.6 µM (inconclusive) and 15.8 µM (inconclusive)
IC50 [18]: > 64 µM (inactive)

SMILES: COc1ccc(C2CC(c3cccs3)=NN2C(=O)CSc2nnc(N)s2)cc1OC (stereo not drawn)
IC50 [19]: > 83.3 µM (inactive)
IC50 [20]: > 109 µM (inactive)

IC50 (Protein Tat): > 100 µM (active)
SMILES: CCOc1ccc(-n2c(Cc3cc(O)nc(O)n3)nnc2SCC(=O)NC2CCCC2)cc1

IC50 (14-3-3 protein gamma): 25.6 µM (active)
SMILES: O=C(Cn1cc2c(n1)CCCC2)NCc1ccccn1

SMILES: NC(=O)n1c(O)c(C(=O)c2cccs2)c2cc(Cl)ccc21
IC50 [10]: 6.95 µM (inactive)
IC50 [11]: 0.537 µM (active)
IC50 [12]: 1.02 µM (active)
IC50 [14]: 1.64 µM (active)
IC50 [15]: 4.7 µM (active)
IC50 [16]: 5.6 µM (inactive)
IC50 [17]: 2.31 µM (active)
IC50 [21]: 3.79 µM (active)

SMILES: COc1ccccc1CN1C[C@@H](C)[C@H](OC)CN(C)C(=O)c2ccc(NC(=O)Nc3ccccc3OC)cc2OC[C@H]1C
AC50 [22]: 0.163 µM (active)
AC50 [23]: 0.0185 µM (active)
AC50 [24]: 2.1 µM (active)
AC50 [25]: < 0.3 µM (active)
AC50 [26]: 0.189 µM (active)
AC50 [27]: > 100 µM (inactive)
AC50 [28]: 0.116 µM (active)

IC50 [29]: > 96.6 µM (inactive)
SMILES: C[C@@H](NCCCn1cnc2c(OCc3ccccc3)ncnc21)c1cccc2ccccc12
